Test results from ChEMBL document CHEMBL5465560, “Selectivity Literature for EUbOPEN Chemogenomic Library” (2024).
Each block holds one compound with its values, some of them ahead of it.

Columns and labels:
[1] = molecular target: Mitogen-activated protein kinase 14 (Homo sapiens, UniProt Q16539); experiment: Selectivity interaction (Radiometric kinase assay (using 10 uM ATP)) EUB0000601a MAPK14
[2] = molecular target: T1, TGF-beta receptor type-1 (Homo sapiens) (UniProt P36897); experiment: Selectivity interaction (KinomeScan (DiscoverX)) EUB0001049a TGFBR1; conditions: at 1 µM
T1 sequence (whole entry): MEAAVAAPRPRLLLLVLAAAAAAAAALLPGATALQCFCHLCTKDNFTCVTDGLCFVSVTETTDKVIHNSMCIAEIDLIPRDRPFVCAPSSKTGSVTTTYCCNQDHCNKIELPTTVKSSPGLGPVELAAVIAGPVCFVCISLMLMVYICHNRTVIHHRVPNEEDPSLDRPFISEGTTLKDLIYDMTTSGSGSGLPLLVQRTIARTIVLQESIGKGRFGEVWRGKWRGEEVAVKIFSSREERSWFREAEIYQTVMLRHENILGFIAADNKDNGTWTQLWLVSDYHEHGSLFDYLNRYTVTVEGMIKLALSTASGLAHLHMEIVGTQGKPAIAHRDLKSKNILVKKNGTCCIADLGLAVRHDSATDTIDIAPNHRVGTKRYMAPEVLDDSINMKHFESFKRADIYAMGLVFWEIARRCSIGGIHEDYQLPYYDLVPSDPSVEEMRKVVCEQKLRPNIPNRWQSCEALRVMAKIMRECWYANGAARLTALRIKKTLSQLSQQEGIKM

[3] = molecular target: Cyclin-dependent kinase 7 (Homo sapiens, UniProt P50613); experiment: Selectivity interaction (ActivX KiNativ screen (kinase selectivity in THP-1 cell lysates)) EUB0000639a CDK7; type: subcellular; conditions: lysate, at 0.01 µM
[4] = molecular target: Phosphatidylinositol 3-kinase catalytic subunit type 3 (Homo sapiens, UniProt Q8NEB9); experiment: Selectivity interaction (ActivX KiNativ screen (kinase selectivity in THP-1 cell lysates)) EUB0000639a PIK3C3; type: subcellular; conditions: lysate, at 0.01 µM
[5] = molecular target: T2, Phosphatidylinositol 4,5-bisphosphate 3-kinase catalytic subunit delta isoform (Homo sapiens) (UniProt O00329); experiment: Selectivity interaction (Kinase panel (Invitrogen)) EUB0000639a PIK3CD; conditions: at 200 nM
T2 sequence (whole entry): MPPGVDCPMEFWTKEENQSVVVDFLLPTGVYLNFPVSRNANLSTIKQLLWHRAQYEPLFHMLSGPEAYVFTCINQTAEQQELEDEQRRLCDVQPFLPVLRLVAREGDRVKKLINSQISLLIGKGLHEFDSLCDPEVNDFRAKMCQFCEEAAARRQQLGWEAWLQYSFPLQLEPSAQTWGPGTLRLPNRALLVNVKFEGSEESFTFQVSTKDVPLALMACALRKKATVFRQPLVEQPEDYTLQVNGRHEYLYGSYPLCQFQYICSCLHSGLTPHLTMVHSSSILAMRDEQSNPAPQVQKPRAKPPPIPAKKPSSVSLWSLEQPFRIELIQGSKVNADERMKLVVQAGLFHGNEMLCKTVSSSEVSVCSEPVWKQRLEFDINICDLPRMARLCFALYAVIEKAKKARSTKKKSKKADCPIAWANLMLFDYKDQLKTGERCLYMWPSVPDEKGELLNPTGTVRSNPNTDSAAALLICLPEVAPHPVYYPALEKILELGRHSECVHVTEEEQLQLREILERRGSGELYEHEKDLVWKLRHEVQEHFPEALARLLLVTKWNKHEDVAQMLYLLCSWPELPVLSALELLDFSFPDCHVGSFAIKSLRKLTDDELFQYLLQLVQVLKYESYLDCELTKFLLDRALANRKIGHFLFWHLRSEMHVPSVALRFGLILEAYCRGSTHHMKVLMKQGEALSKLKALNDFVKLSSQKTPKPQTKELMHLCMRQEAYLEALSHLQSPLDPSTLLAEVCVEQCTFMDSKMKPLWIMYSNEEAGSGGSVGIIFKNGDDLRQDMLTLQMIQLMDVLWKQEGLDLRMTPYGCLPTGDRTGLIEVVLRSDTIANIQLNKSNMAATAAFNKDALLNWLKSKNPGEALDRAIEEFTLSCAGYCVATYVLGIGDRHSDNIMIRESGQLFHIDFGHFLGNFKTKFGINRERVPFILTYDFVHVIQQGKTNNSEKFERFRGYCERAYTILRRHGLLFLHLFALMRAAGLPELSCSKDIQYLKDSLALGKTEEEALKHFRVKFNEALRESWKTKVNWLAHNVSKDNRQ

[6] = molecular target: T3, Tyrosine-protein kinase receptor TYRO3 (Homo sapiens) (UniProt Q06418); experiment: Selectivity interaction (Kinase panel (Z-LYTE Assay)) EUB0001632a TYRO3; conditions: at 10 µM
T3 sequence (whole entry): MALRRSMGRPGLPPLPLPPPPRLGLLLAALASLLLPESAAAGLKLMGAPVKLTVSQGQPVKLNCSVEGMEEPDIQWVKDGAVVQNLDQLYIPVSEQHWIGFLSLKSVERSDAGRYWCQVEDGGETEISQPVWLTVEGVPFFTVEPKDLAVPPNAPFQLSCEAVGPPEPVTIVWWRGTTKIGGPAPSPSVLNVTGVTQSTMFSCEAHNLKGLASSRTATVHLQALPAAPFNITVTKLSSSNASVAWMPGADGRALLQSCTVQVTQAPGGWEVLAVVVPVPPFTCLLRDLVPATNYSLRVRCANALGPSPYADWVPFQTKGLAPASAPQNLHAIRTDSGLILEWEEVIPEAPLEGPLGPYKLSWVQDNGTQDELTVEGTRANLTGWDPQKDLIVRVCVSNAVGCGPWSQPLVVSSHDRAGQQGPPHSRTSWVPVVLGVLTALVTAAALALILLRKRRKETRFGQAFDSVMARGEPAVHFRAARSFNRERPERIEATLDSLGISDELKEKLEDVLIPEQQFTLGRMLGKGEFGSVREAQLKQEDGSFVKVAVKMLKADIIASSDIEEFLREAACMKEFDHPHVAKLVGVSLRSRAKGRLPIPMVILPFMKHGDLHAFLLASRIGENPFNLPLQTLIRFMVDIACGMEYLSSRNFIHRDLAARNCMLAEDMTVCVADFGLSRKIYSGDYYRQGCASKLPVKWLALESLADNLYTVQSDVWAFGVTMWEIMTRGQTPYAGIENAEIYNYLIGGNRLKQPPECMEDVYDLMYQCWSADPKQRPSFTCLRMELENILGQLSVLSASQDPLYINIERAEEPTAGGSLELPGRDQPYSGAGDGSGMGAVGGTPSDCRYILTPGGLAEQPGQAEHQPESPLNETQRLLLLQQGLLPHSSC

Insulin receptor = Insulin receptor (Homo sapiens, UniProt P06213); experiment: Selectivity interaction (KinomeScan (DiscoverX)) EUB0000655a INSR; conditions: at 10 µM
[7] = molecular target: Rho-associated protein kinase 1 (Homo sapiens) (UniProt Q13464); experiment: Selectivity interaction (KinomeScan (DiscoverX)) EUB0001619a ROCK1; conditions: at 1 µM
Sequence of Rho-associated protein kinase 1 (Homo sapiens) (Q13464 2-1354 limits assumed): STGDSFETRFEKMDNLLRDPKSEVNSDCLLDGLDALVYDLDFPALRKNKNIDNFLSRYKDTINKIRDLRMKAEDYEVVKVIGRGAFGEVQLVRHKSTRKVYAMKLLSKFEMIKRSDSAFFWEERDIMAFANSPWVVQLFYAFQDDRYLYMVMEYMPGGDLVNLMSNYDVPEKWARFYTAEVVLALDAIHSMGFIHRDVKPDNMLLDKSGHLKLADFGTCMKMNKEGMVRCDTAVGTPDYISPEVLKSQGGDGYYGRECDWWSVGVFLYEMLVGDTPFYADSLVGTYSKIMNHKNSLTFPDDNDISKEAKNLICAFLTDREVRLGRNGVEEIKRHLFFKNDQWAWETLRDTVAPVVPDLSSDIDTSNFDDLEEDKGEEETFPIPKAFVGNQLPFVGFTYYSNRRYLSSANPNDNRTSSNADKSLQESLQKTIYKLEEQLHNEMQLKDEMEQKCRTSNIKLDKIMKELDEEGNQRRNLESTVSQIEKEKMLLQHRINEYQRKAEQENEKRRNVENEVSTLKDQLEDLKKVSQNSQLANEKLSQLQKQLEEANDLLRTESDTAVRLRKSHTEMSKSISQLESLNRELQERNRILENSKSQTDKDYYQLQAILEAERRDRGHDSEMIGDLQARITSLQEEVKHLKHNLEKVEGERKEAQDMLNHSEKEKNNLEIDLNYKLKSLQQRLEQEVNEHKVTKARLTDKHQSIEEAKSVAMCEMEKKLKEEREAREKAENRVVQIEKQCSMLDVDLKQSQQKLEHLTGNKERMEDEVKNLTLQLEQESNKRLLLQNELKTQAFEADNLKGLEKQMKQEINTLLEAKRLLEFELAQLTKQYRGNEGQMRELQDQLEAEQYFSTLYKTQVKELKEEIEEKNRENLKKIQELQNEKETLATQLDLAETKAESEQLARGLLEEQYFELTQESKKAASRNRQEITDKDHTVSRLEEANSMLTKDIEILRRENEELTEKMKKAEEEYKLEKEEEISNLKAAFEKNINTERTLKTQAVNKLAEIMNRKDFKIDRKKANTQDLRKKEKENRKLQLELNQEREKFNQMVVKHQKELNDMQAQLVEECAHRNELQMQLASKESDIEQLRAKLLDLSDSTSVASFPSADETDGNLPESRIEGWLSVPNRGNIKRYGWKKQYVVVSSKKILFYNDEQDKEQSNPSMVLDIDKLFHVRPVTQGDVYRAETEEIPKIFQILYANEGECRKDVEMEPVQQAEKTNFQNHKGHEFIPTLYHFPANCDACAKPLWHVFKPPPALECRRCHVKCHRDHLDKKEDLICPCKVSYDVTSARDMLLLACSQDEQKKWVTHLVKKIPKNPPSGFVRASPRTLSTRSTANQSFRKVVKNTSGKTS

Sequence of Cyclin-dependent kinase 7 (P50613 whole entry): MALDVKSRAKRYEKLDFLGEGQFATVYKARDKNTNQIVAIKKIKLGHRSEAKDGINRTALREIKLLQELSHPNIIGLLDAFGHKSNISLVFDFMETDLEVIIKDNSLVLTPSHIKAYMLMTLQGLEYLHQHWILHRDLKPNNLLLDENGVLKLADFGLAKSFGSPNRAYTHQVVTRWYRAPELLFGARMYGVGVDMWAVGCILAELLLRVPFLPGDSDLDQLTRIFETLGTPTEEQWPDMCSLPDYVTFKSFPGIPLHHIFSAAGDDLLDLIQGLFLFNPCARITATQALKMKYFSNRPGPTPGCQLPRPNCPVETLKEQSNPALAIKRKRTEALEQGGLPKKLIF
Sequence of Phosphatidylinositol 3-kinase catalytic subunit type 3 (Q8NEB9 whole entry, canonical isoform): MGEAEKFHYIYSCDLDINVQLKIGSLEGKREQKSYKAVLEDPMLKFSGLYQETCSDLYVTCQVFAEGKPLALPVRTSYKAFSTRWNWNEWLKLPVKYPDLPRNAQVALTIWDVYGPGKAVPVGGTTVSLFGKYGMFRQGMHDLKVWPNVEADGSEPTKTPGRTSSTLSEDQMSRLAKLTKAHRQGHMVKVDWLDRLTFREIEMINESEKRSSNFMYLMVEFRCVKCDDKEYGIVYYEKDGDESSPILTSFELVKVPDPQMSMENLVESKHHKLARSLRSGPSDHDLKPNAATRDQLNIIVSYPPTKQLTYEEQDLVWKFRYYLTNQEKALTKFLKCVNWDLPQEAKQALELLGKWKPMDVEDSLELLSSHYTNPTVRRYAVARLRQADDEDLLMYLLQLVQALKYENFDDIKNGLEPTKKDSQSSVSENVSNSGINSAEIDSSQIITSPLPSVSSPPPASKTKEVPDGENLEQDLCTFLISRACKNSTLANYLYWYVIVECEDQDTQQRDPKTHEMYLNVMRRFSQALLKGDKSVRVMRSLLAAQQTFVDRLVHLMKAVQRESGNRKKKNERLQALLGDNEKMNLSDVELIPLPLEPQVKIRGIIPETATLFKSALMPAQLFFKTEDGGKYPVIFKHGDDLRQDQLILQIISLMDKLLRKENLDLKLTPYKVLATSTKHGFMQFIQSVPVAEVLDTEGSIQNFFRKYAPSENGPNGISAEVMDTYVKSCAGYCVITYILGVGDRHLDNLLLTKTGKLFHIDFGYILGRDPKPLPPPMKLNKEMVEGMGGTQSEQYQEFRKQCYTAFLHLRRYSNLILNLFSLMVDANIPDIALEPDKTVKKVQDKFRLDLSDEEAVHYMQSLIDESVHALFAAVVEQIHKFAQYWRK
Sequence of Mitogen-activated protein kinase 14 (Q16539 whole entry): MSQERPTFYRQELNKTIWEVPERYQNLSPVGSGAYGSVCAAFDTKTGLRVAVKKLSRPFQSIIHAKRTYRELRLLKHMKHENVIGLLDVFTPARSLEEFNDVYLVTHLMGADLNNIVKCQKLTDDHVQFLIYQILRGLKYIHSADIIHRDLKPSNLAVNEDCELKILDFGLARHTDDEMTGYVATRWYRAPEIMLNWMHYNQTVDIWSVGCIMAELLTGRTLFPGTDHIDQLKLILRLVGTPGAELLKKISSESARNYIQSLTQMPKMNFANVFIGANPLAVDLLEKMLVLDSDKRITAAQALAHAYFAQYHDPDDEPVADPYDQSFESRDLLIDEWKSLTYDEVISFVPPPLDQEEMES
Sequence of Insulin receptor (P06213 28-758 limits assumed): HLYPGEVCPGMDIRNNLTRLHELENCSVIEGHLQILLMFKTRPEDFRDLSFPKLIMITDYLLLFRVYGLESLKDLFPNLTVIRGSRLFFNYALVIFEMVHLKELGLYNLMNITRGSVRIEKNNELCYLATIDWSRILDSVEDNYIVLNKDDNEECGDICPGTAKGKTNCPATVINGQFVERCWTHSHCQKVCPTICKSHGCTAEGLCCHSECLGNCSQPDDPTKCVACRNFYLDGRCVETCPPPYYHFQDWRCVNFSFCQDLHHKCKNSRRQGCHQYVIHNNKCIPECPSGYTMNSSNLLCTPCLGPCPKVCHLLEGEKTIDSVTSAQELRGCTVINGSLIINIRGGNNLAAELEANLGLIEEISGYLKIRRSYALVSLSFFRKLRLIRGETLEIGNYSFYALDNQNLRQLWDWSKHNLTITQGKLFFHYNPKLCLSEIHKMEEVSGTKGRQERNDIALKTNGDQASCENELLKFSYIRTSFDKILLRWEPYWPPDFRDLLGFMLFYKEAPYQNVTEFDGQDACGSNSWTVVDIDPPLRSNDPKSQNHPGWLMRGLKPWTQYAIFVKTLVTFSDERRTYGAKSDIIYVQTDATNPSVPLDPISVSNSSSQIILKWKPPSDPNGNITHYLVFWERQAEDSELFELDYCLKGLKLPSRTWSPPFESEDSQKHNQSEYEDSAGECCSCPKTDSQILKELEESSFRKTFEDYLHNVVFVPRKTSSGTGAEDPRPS
Sequence of Insulin receptor (P06213 763-1382 limits assumed): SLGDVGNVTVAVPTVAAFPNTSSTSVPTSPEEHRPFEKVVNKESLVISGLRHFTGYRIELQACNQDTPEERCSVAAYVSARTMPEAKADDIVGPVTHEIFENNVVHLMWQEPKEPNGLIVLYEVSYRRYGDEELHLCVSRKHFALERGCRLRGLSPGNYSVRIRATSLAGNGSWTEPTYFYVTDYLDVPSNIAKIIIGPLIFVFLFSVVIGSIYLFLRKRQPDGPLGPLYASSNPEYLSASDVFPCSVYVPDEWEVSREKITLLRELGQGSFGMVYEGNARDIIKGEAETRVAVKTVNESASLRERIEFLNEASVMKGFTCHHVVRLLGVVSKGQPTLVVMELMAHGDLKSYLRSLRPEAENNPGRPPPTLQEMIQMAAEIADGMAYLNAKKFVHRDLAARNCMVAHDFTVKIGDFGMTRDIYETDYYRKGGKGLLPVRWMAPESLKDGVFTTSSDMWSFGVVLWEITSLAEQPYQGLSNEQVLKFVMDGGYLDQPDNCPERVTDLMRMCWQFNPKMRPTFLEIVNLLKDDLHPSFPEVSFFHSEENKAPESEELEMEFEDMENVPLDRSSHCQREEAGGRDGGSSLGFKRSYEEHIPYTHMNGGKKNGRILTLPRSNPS

SMILES: COc1cc(Nc2nc(C)cc(-c3cnn4nc(OC)ccc34)n2)cc(C(F)(F)F)c1
% of control [2]: 100%

SMILES: Cn1cc(-n2cnc3c(NCc4nc5cc(Cl)c(Cl)cc5[nH]4)nc(N4CCOCC4)nc32)cn1
% of control [6]: -1.87%

SMILES: CN(C)CCOc1ccc(-c2nc(-c3ccncc3)c(-c3ccc4c(c3)CC/C4=N\O)[nH]2)cc1
% of control (Insulin receptor): 100%

SMILES: N#Cc1cccc(-c2c[nH]c3ncnc(N4CCOCC4)c23)c1
% of control [7]: 85%

Second part, the compound after the results:

IC50 [1]: > 11 µM
SMILES: CCc1cc(Nc2nccc(-c3c(-c4ccc(OC)c(C(=O)Nc5c(F)cccc5F)c4)nc4ccccn34)n2)c(OC)cc1N1CCC(N2CCN(S(C)(=O)=O)CC2)CC1

% of inhibition [3]: -3%
% of inhibition [4]: -21%
% of inhibition [5]: 1.5%
SMILES: CC[C@@H]1[C@H](F)C(=O)N[C@@H]1COc1nccc2cc(C(N)=O)c(OC)cc12 [ZIMLOVISERTIB]
